# Tested on: EMT6 mouse breast carcinoma syngeneic tumor
# Experiment: Study 3: EMT6 orthotopic (mammary fat pad) syngeneic tumor model, time-to-progression analysis
# Assay type: in vivo, female BALB/c mice
# Description: Study 3: EMT6 is a mouse breast carcinoma cell line. EMT6 mouse syngeneic tumor model was generated by orthotopic inoculation with 1.0×10^6 EMT6 cells (cell suspension) in seven to eight week old female BALB/c mice (Envigo Corp., Indianapolis, IN) in the mammary fat pad. When the mean tumor volume reached approximately 110 mm^3, the animals were randomized into one vehicle control and eight treatment groups (n=8/group). Mice were then treated with Compound No. 14, anti-mouse PD-1 (anti-mPD-1) (clone RMP1-14), and/or three fraction doses of 8 Gy of Radiation (8 Gy×3), or the respective control agents (PBS, isotype control antibody, and/or mock radiation) in the following combinations over an 11-day period. • Group 1: vehicle (PBS)+isotype control+mock radiation • Group 2: Compound No. 14 (1 mg/kg)+isotype control+mock radiation • Group 3: Compound No. 14 (0.25 mg/kg)+isotype control+mock radiation • Group 4: vehicle+anti-mPD-1+mock radiation • Group 5: vehicle+isotype control+radiation (8 Gy×3) • Group 6: Compound No. 14 (1 mg/kg)+isotype control+radiation (8 Gy×3) • Group 7: vehicle+anti-mPD-1+radiation (8 Gy×3) • Group 8: Compound No. 14 (1 mg/kg)+anti-mPD-1+radiation (8 Gy×3) • Group 9: Compound No. 14 (0.25 mg/kg)+anti-mPD-1+radiation (8 Gy×3)
# Tumor growth and body weight were measured three times per week during the treatment and post-treatment periods. Mice were humanely euthanized once they had reached their humane endpoint. Mice with complete regressions were evaluated until day 74 or day 108.
# Study 3: A 0.1 mg/mL stock solution of Compound No. 14 was formulated in PBS and administered IV based on exact animal body weight on each day of treatment, using a dosing volume of 10 mL/kg body weight. Final doses received were 0.25 mg/kg or 1.0 mg/kg. Compound No. 14 was administered on a Q3D schedule for 3 doses (Days 12, 15 and 18) in single agent treatment group and in combination treatment groups. Dose formulation of Compound No. 14 was prepared once and utilized for all three dosing days.
# Formulated anti-mPD-1 and isotype control were stored at 4 degree Celsius until subsequent dosing on Days 15 and 18. Anti-mPD-1 or isotype control was administered concurrent with Compound No. 14 or vehicle control on a Q3D schedule for 3 doses (Days 12, 15 and 18) in single agent treatment groups and in combination treatment groups.
# Radiation treatment for Study 3 was performed using focal beam radiation with volumetric image guidance from computed tomography scans SARRP (Small Animal Radiation Research Platform) irradiator (Xstrahl Inc. Suwanee, Ga). Animals received 2.42 Gy/min of radiation and approximately 3.3 min was needed to reach 8 Gy dose delivery. Animals received 8 Gy radiation on days 8, 9 and 10, with the last radiation dose given two days prior to the initiation of dosing with Compound No. 14 and/or anti-mPD-1 or relevant controls on Day 12. Animals were anesthetized during imaging and radiation treatment using 1-2% Isoflurane. For repeated daily radiation treatments, the same treatment plan was applied and adjusted for changes in animal positioning or target alteration over time.
# Tumors were measured three times weekly using vernier calipers. Tumor volumes were calculated using standard equation: V=W^2×L/2, where V=volume, W=width, and L=length for the tumor. When mean tumor volumes reached approximately 60 mm^3 for Study 1, 75 mm^3 for Study 2, and 110 mm^3 for Study 3, mice were randomized into eight groups (n=10/group) in Studies 1 and 2, and nine groups (n=8/group) in Study 3. These groups were then dosed with vehicle (PBS), Compound No. 14, Radiation, anti-mPD-1 or isotype control, or combinations of these agents as described in Tables 1a, 2a, and 3a. Tumor size and body weight were measured three times a week for the duration of each study. […]
smiles,measurement,setting,value
Nc1ncnc2c1ncn2[C@@H]1O[C@@H]2COP(=O)(S)O[C@@H]3[C@H](O)[C@@H](COP(=O)(S)O[C@H]2[C@H]1F)O[C@H]3n1cc(F)c2c(=O)[nH]cnc21 (stereo partly shown) [Compound No. 14],Synergy Hazard Ratio (Weibull),Combination Gr 6 [Compound No. 14 (1 mg/kg) + isotype control + radiation (8 Gy × 3)] vs Gr 2 and Gr 5,0.00194
same,Mice remaining on study beyond day 53,Gr 2: Compound No. 14 (1 mg/kg) + isotype control + mock radiation,no mice
same,"HR (Weibull), time to progression, pairwise comparison to vehicle group (Gr 1)","Gr 2: Compound No. 14 (1 mg/kg) IV Q3D×3 + isotype control + mock radiation, TTP = tumor volume reaching 1000 mm^3",0.485
same,"HR (Weibull), time to progression, pairwise comparison to vehicle group (Gr 1)",Gr 3: Compound No. 14 (0.25 mg/kg) IV Q3D×3 + isotype control + mock radiation,0.37
same,"HR (Weibull), time to progression, pairwise comparison to vehicle group (Gr 1)",Gr 6: Compound No. 14 (1 mg/kg) + isotype control + radiation (8 Gy×3),0.00091
same,Mice remaining on study as tumor-free survivors at end of study (Day 108),"Group 6: Compound No. 14 (1 mg/kg) + isotype control + 8 Gy×3 Radiation, n=8/group",5 mice
same,"Combination effect on TTP (synergy, in words)",Group 6: Compound No. 14 (1 mg/kg) and 8 Gy×3 Radiation with isotype control,Statistically significant synergy
